Values quoted from earlier work, collected in patent EP1844782A1 (priority 2006, dated 2007).

Tested on: EAE
Details: EAE (Craner et al., 2005)

In the case of `O=C1NC(=O)C(c2ccccc2)(c2ccccc2)N1` [phenytoin], the “ameliorates the inflammatory cell infiltrate in EAE” value is given as 75%.
